Measured values from the supplement of paper PMC10627819.

Tests used:
B. subtilis 168 [1] = assay: fitness (endpoint OD595 vs no drug) (fraction); higher = more growth
Procedure, shortened: (§1)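 At 37 °C, bacteria in TSB, LB Lennox or CY were grown in 384-well plates from a starting OD595 of 0.01. OD595 was measured every 30 min for 14 h, with the first reading used as background. Fitness is the optical density at the switch to stationary phase as a fraction of the robust mean of no-drug control wells, capped at 1.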

S. aureus Newman [2] = assay: as above
Procedure, shortened: as §1

S. pneumoniae D39V [3] = assay: as above
Procedure, shortened: as §1

B. subtilis 168 [4] = assay: Bliss interaction score (quartile over a dose matrix) (fitness difference); higher = more antagonism (negative = synergy)
Procedure, shortened: (§2)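 Fitness was OD595 at entry into stationary phase divided by the plate's robust no-drug mean and capped at 1; single-drug fitness was inferred from combination data. The Bliss score is observed minus expected (product) fitness, summarised by quartiles over technical, biological and donor/recipient replicates.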

S. aureus DSM 20231 = assay: as above
Procedure, shortened: as §2

S. aureus Newman [5] = assay: as above
Procedure, shortened: as §2

S. pneumoniae D39V [6] = assay: as above
Procedure, shortened: as §2
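Wherever Bliss interaction score (quartile over a dose matrix) is given: first quartile when negative (synergy) and third quartile when positive (antagonism).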

O=C(O)c1cn(C2CC2)c2cc(N3CCNCC3)c(F)cc2c1=O [Ciprofloxacin] + C[n+]1ccc(-c2cc[n+](C)cc2)cc1 [Paraquat]
Settings | fitness
B. subtilis 168 [1], first compound 0.0098 µg/mL, partner 1.25 µg/mL | 0.895
B. subtilis 168 [1], first compound 0.0098 µg/mL, partner 2.5 µg/mL | 0.922
B. subtilis 168 [1], first compound 0.0098 µg/mL, partner 5 µg/mL | 0.788
B. subtilis 168 [1], first compound 0.0195 µg/mL, partner 1.25 µg/mL | 0.753
B. subtilis 168 [1], first compound 0.0195 µg/mL, partner 2.5 µg/mL | 0.657
B. subtilis 168 [1], first compound 0.0195 µg/mL, partner 5 µg/mL | 0.687
B. subtilis 168 [1], first compound 0.039 µg/mL, partner 1.25 µg/mL | 0.171
B. subtilis 168 [1], first compound 0.039 µg/mL, partner 2.5 µg/mL | 0.171
B. subtilis 168 [1], first compound 0.039 µg/mL, partner 5 µg/mL | 0.234
S. aureus Newman [2], first compound 0.0375 µg/mL, partner 1.25 µg/mL | 0.662
S. aureus Newman [2], first compound 0.0375 µg/mL, partner 2.5 µg/mL | 0.639
S. aureus Newman [2], first compound 0.0375 µg/mL, partner 5 µg/mL | 0.642
S. aureus Newman [2], first compound 0.075 µg/mL, partner 1.25 µg/mL | 0.674
S. aureus Newman [2], first compound 0.075 µg/mL, partner 2.5 µg/mL | 0.635
S. aureus Newman [2], first compound 0.075 µg/mL, partner 5 µg/mL | 0.663
S. aureus Newman [2], first compound 0.15 µg/mL, partner 1.25 µg/mL | 0.033
S. aureus Newman [2], first compound 0.15 µg/mL, partner 2.5 µg/mL | 0.0399
S. aureus Newman [2], first compound 0.15 µg/mL, partner 5 µg/mL | 0.0549
S. pneumoniae D39V [3], first compound 0.125 µg/mL, partner 1.5 µg/mL | 0.983
S. pneumoniae D39V [3], first compound 0.125 µg/mL, partner 3 µg/mL | 0.974
S. pneumoniae D39V [3], first compound 0.125 µg/mL, partner 6 µg/mL | 0.97
S. pneumoniae D39V [3], first compound 0.25 µg/mL, partner 1.5 µg/mL | 0.942
S. pneumoniae D39V [3], first compound 0.25 µg/mL, partner 3 µg/mL | 0.913
S. pneumoniae D39V [3], first compound 0.25 µg/mL, partner 6 µg/mL | 0.902
S. pneumoniae D39V [3], first compound 0.5 µg/mL, partner 1.5 µg/mL | 0.877
S. pneumoniae D39V [3], first compound 0.5 µg/mL, partner 3 µg/mL | 0.875

Settings | Bliss interaction score
B. subtilis 168 [4] | -0.0477
S. aureus DSM 20231 | -0.0499
S. aureus Newman [5] | -0.0507
S. pneumoniae D39V [6] | 0.0853

O=C(O)c1cn(C2CC2)c2cc(N3CCNCC3)c(F)cc2c1=O [Ciprofloxacin] + CN1C2=CC=CC=C2N=C3C1=CC=CC3=O [Pyocyanin]
Settings | fitness
B. subtilis 168 [1], first compound 0.0098 µg/mL, partner 1.25 µg/mL | 0.911
B. subtilis 168 [1], first compound 0.0098 µg/mL, partner 2.5 µg/mL | 0.809
B. subtilis 168 [1], first compound 0.0098 µg/mL, partner 5 µg/mL | 0.814
B. subtilis 168 [1], first compound 0.0195 µg/mL, partner 2.5 µg/mL | 0.703
B. subtilis 168 [1], first compound 0.0195 µg/mL, partner 5 µg/mL | 0.649
S. aureus Newman [2], first compound 0.0375 µg/mL, partner 1.25 µg/mL | 0.601
S. aureus Newman [2], first compound 0.0375 µg/mL, partner 2.5 µg/mL | 0.574
S. aureus Newman [2], first compound 0.0375 µg/mL, partner 5 µg/mL | 0.38
S. aureus Newman [2], first compound 0.075 µg/mL, partner 1.25 µg/mL | 0.578
S. aureus Newman [2], first compound 0.075 µg/mL, partner 2.5 µg/mL | 0.533
S. aureus Newman [2], first compound 0.075 µg/mL, partner 5 µg/mL | 0.26
S. aureus Newman [2], first compound 0.15 µg/mL, partner 1.25 µg/mL | 0.0395
S. aureus Newman [2], first compound 0.15 µg/mL, partner 2.5 µg/mL | 0.0384
S. aureus Newman [2], first compound 0.15 µg/mL, partner 5 µg/mL | 0.0694
S. pneumoniae D39V [3], first compound 0.125 µg/mL, partner 0.325 µg/mL | 0.989
S. pneumoniae D39V [3], first compound 0.125 µg/mL, partner 0.65 µg/mL | 0.966
S. pneumoniae D39V [3], first compound 0.125 µg/mL, partner 1.3 µg/mL | 0.755
S. pneumoniae D39V [3], first compound 0.25 µg/mL, partner 0.325 µg/mL | 0.924
S. pneumoniae D39V [3], first compound 0.25 µg/mL, partner 0.65 µg/mL | 0.92

Settings | fitness
S. pneumoniae D39V [3], first compound 0.25 µg/mL, partner 1.3 µg/mL, one replicate | 0.54

Settings | Bliss interaction score
B. subtilis 168 [4] | 0.104
S. aureus DSM 20231 | 0.0671
S. aureus Newman [5] | -0.0511
S. pneumoniae D39V [6] | 0.0709

COc1cccc2c1C(=O)c1c(O)c3c(c(O)c1C2=O)C[C@@](O)(C(=O)CO)C[C@@H]3O[C@H]1C[C@H](N)[C@H](O)[C@H](C)O1 [Doxorubicin] + CC(C1CCC(C(O1)OC2C(CC(C(C2O)OC3C(C(C(CO3)(C)O)NC)O)N)N)N)NC [Gentamicin]
main component drawn
Settings | fitness
B. subtilis 168 [1], first compound 0.625 µg/mL, partner 0.0625 µg/mL | 0.905
B. subtilis 168 [1], first compound 0.625 µg/mL, partner 0.25 µg/mL | 0.079
B. subtilis 168 [1], first compound 1.25 µg/mL, partner 0.0625 µg/mL | 0.804
B. subtilis 168 [1], first compound 1.25 µg/mL, partner 0.25 µg/mL | 0.086
B. subtilis 168 [1], first compound 2.5 µg/mL, partner 0.25 µg/mL | 0.0548
S. aureus Newman [2], first compound 0.625 µg/mL, partner 0.375 µg/mL | 0.753
S. aureus Newman [2], first compound 0.625 µg/mL, partner 0.5 µg/mL | 0.841
S. aureus Newman [2], first compound 0.625 µg/mL, partner 0.75 µg/mL | 0.778
S. aureus Newman [2], first compound 0.625 µg/mL, partner 1 µg/mL | 0.937
S. aureus Newman [2], first compound 0.625 µg/mL, partner 1.5 µg/mL | 0.777
S. aureus Newman [2], first compound 0.625 µg/mL, partner 2 µg/mL | 0.875
S. aureus Newman [2], first compound 1.25 µg/mL, partner 0.375 µg/mL | 0.794
S. aureus Newman [2], first compound 1.25 µg/mL, partner 0.5 µg/mL | 0.783
S. aureus Newman [2], first compound 1.25 µg/mL, partner 0.75 µg/mL | 0.784
S. aureus Newman [2], first compound 1.25 µg/mL, partner 1 µg/mL | 0.826
S. aureus Newman [2], first compound 1.25 µg/mL, partner 1.5 µg/mL | 0.793
S. aureus Newman [2], first compound 1.25 µg/mL, partner 2 µg/mL | 0.887
S. aureus Newman [2], first compound 2.5 µg/mL, partner 0.375 µg/mL | 0.774
S. aureus Newman [2], first compound 2.5 µg/mL, partner 0.5 µg/mL | 0.734
S. aureus Newman [2], first compound 2.5 µg/mL, partner 0.75 µg/mL | 0.788
S. aureus Newman [2], first compound 2.5 µg/mL, partner 1 µg/mL | 0.779
S. aureus Newman [2], first compound 2.5 µg/mL, partner 1.5 µg/mL | 0.796
S. aureus Newman [2], first compound 2.5 µg/mL, partner 2 µg/mL | 0.809
S. pneumoniae D39V [3], first compound 0.25 µg/mL, partner 2 µg/mL | 0.919
S. pneumoniae D39V [3], first compound 0.25 µg/mL, partner 4 µg/mL | 0.919
S. pneumoniae D39V [3], first compound 0.25 µg/mL, partner 8 µg/mL | 0.882
S. pneumoniae D39V [3], first compound 0.5 µg/mL, partner 2 µg/mL | 0.937
S. pneumoniae D39V [3], first compound 0.5 µg/mL, partner 4 µg/mL | 0.943
S. pneumoniae D39V [3], first compound 0.5 µg/mL, partner 8 µg/mL | 0.848
S. pneumoniae D39V [3], first compound 1 µg/mL, partner 2 µg/mL | 0.806
S. pneumoniae D39V [3], first compound 1 µg/mL, partner 4 µg/mL | 0.822
S. pneumoniae D39V [3], first compound 1 µg/mL, partner 8 µg/mL | 0.76

main component drawn
Settings | Bliss interaction score
B. subtilis 168 [4] | -0.258
S. aureus DSM 20231 | 0.037
S. aureus Newman [5] | -0.0672
S. pneumoniae D39V [6] | 0.0449
